How the values were obtained:
[1] = tested on: P. aeruginosa PAO1 biofilms; test: Anti-biofilm assay, CFU count of adherent cells; type: cell-based, Pseudomonas aeruginosa PAO1; conditions: PAO1, 48 h, relative to untreated control, mean ± SD of 3 independent experiments; for inhibition at 50 µM: Pseudomonas aeruginosa; for Biofilm Inhibition (%): 50 µM
Experimental: The effect of all compounds was evaluated on PAO1 biofilms, grown in 24-well microplates. The antibiofilm assay used in this study is based on a low nutritive culture medium, a rather weak inoculum (10^2 CFU/mL), and a regular renewal of the culture medium (at 2, 4, 6, 20, and 24 h), in order to promote the growth of adhered cells as biofilm, instead of the growth and/or sedimentation of planktonic cells. Since the QS systems are involved in early steps of biofilm formation, compounds were added at t0. After incubation, viable cells were quantified by CFU plate counts.
The rather low concentration of 50 µM used was set up according to detected concentrations of QS molecules in CF patients’ lungs. […] For all compounds, MICs/MBCs were higher than 500 µM. To be considered active, a threshold of 50% inhibition, relative to the untreated control, was applied.
Pseudomonas aeruginosa PAO1 was obtained from the Institute Pasteur Collection (CIP 104116, Paris, France), frozen and kept at -80 °C in a 20% (v/v) glycerol stock solution. Before each experiment, two successive subcultures were prepared on trypticase soy agar and incubated for 24 h under aerobic conditions at 37 °C. Before each experiment, bacterial suspensions of 10^8 CFU/mL were prepared by adjusting OD at 640 nm to 0.150.
The bacterial enumerations were done on trypticase soy agar. The minimum biofilm broth used for biofilm formation (MBB) was prepared in sterile distilled water (SDW) and was composed of MgSO4·7H2O (0.02 g/L), FeSO4·7H2O (0.5 mg/L), Na2HPO4 (1.25 g/L), KH2PO4 (0.5 g/L), (NH4)2SO4 (0.1 g/L), and glucose (0.05 g/L) from Merck-Sigma (France).
The enumeration of adhered bacteria was carried-out according to Campanac et al. with some modifications. P. aeruginosa biofilms were grown in a 24-wells microtiter plate for 48 h. The culture medium was composed of BBM 2X (1.0 mL) and 1.0 mL of a 10^−4 M solution of tested compound dissolved in SDW (final concentration 50 µM). After inoculation with 100 µL of a 10^2 CFU/mL bacterial suspension of P. aeruginosa PAO1 (final inoculum 10 CFU/well), the microtiter plate was incubated à 37 °C. After 2 h, 4 h, 6 h, 20 h and 24 h of incubation, each well was emptied, rinsed twice with SDW, and the culture medium was renewed. After 48 h of culture, the biofilm was rinsed twice with 2.0 mL SDW. The bottom of each well was scraped with a sterile spatula and suspended in 1.0 mL of SDW. The content of each well was diluted by serial dilutions in test tubes. After inclusion of 0.9 mL of each dilution in trypticase soy agar, Petri dishes were incubated for 48 h at 37 °C. The number of colony forming units (CFUs) was counted and the inhibition percentage calculated using the following formula: Inhibition(%)=Adhered cellsControl(CFU/mL)−Adhered cellsSample(CFU/mL) /Adhered cellsControl×100

SMILES | melting point | inhibition at 50 µM [1] | Biofilm Inhibition (%) [1]
O=C(Nc1ccc(Cl)cc1)c1cc(=O)c2ccccc2o1 [3f, N-(4-Chlorophenyl)-4-oxo-4H-chromene-2-carboxamide] | 265 °C | 25.9 ± 4.3% | 
CCN(CC)Cc1cc(NC(=O)c2cc(=O)c3ccccc3o2)ccc1O [3′b] |  |  | 35.5 ± 5.8%
O=C(Nc1ncccn1)c1cc(=O)c2ccccc2o1 [3v, 4-Oxo-N-(pyrimidin-2-yl)-4H-chromene-2-carboxamide] | 189 °C | 46 ± 7.3% | 
O=C(Nc1ccc(Br)cc1)c1cc(=O)c2ccccc2o1 [3g, N-(4-Bromophenyl)-4-oxo-4H-chromene-2-carboxamide] |  | 47.2 ± 2.8% | 
COc1ccccc1NC(=O)c1cc(=O)c2ccccc2o1 [3q, N-(2-Methoxyphenyl)-4-oxo-4H-chromene-2-carboxamide] | 199 °C | 41.3 ± 5.7% | 
O=C(Nc1ccc([N+](=O)[O-])cc1)c1cc(=O)c2ccccc2o1 [3m, N-(4-Nitrophenyl)-4-oxo-4H-chromene-2-carboxamide] | 307 °C | 58.7 ± 2.5% | 
O=C(Nc1ccccc1F)c1cc(=O)c2ccccc2o1 [3h, N-(2-Fluorophenyl)-4-oxo-4H-chromene-2-carboxamide] | 225 °C | 42.4 ± 10.4% | 
CCc1cccc(NC(=O)c2cc(=O)c3ccccc3o2)c1 [3′a, N-(3-Ethylphenyl)-4-oxo-4H-chromene-2-carboxamide] | 168 °C | 70.5 ± 5.6% | 
CC(C)(C)OC(=O)N1CCC(CNC(=O)c2cc(=O)c3ccccc3o2)CC1 [3′e, Tert-butyl 4-((4-oxo-4H-chromene-2-carboxamido)methyl)piperidine-1-carboxylate] | 129 °C | 36 ± 28.6% | 
O=C(Nc1ccccc1Cl)c1cc(=O)c2ccccc2o1 [3i, N-(2-Chlorophenyl)-4-oxo-4H-chromene-2-carboxamide] | 181 °C | 35.2 ± 14.8% | 
O=C(Nc1ccc(Cn2ccnc2)cc1)c1cc(=O)c2ccccc2o1 [3′d, N-(4-((1H-Imidazol-1-yl)methyl)phenyl)-4-oxo-4H-chromene-2-carboxamide] | 261 °C | < 10% | 
O=C(Nc1ccc(F)cc1)c1cc(=O)c2ccccc2o1 [3e, N-(4-Fluorophenyl)-4-oxo-4H-chromene-2-carboxamide] | 211 °C | 73.3 ± 11% | 
COc1ccc(NC(=O)c2cc(=O)c3ccccc3o2)cc1 [3p, N-(4-Methoxyphenyl)-4-oxo-4H-chromene-2-carboxamide] |  | 47.5 ± 5.3% | 
O=C(Nc1cc(=O)c2ccccc2o1)c1cc([N+](=O)[O-])cc([N+](=O)[O-])c1 [6o, 3,5-Dinitro-N-(4-oxo-4H-chromen-2-yl) benzamide] | 291 °C | 78.3 ± 4% | 
CCCc1ccc(NC(=O)c2cc(=O)c3ccccc3o2)cc1 [3d, 4-Oxo-N-(4-propylphenyl)-4H-chromene-2-carboxamide] | 173 °C | 55.6 ± 18.3% | 
O=C(NC1CCCCC1)c1cc(=O)c2ccccc2o1 [3x, N-Cyclohexyl-4-oxo-4H-chromene-2-carboxamide] | 179 °C | 32 ± 10.3% | 
CCN(CC)CCCC(C)NC(=O)c1cc(=O)c2ccccc2o1 (stereo not drawn) [3′g, N-(5-(Diethylamino)pentan-2-yl)-4-oxo-4H-chromene-2-carboxamide] | 110 °C | 14.7 ± 2.1% | 
Cc1ccc(NC(=O)c2cc(=O)c3ccccc3o2)cc1 [3b, 4-Oxo-N-(p-tolyl)-4H-chromene-2-carboxamide] |  | 39.1 ± 5.4% | 
O=C(Nc1ccc(N2CCOCC2)cc1)c1cc(=O)c2ccccc2o1 [3u, N-(4-Morpholinophenyl)-4-oxo-4H-chromene-2-carboxamide] | 288 °C | 51.2 ± 11.7% | 
O=C(Nc1ccc([N+](=O)[O-])cc1[N+](=O)[O-])c1cc(=O)c2ccccc2o1 [3n, N-(2,4-Dinitrophenyl)-4-oxo-4H-chromene-2-carboxamide] | 330 °C | < 10% | 
O=C(CN1CCN(C(=O)c2cc(=O)c3ccccc3o2)CC1)N1CCCC1 [3′i, 2-(4-(2-Oxo-2-(pyrrolidin-1-yl)ethyl)piperazine-1-carbonyl)-4H-chromen-4-one] | 117 °C | 10.8 ± 0.4% | 
CCN(CC)Cc1cc(NC(=O)c2cc(=O)c3ccccc3o2)ccc1O [3′c, N-(3-((Diethylamino)methyl)-4-hydroxyphenyl)-4-oxo-4H-chromene-2-carboxamide] | 186 °C | 39.7 ± 4.5% | 

Continued, in another order:

melting point | SMILES | inhibition at 50 µM [1] | Biofilm Inhibition (%) [1]
287 °C | O=C(Nc1cc(=O)c2ccccc2o1)c1ccc(Br)cc1 [6g, 4-Bromo-N-(4-oxo-4H-chromen-2-yl) benzamide] | 56.2 ± 7.9% | 
260 °C | COc1ccccc1C(=O)Nc1cc(=O)c2ccccc2o1 [6q, 2-Methoxy-N-(4-oxo-4H-chromen-2-yl) benzamide] | 35.2 ± 6.8% | 
215 to 218 °C | O=C(Nc1cc(=O)c2ccccc2o1)c1ccccc1Br [6j, 2-Bromo-N-(4-oxo-4H-chromen-2-yl) benzamide] | 36.1 ± 4.1% | 
240 °C | Cc1ccc(C(=O)Nc2cc(=O)c3ccccc3o2)cc1 [6b, 4-Methyl-N-(4-oxo-4H-chromen-2-yl) benzamide] | 67 ± 3.6% | 
228 °C | O=C(Nc1cc(=O)c2ccccc2o1)c1ccccc1Cl [6i, 2-Chloro-N-(4-oxo-4H-chromen-2-yl) benzamide] | 59.3 ± 3.3% | 
286 °C | O=C(Nc1cc(=O)c2ccccc2o1)C12CC3CC(CC(C3)C1)C2 [6y, (3R,5R,7R)-N-(4-Oxo-4H-chromen-2-yl) adamantane-1-carboxamide] | 19.5 ± 1.8% | 
246 °C | COc1ccc(C(=O)Nc2cc(=O)c3ccccc3o2)cc1OC [6s, 3,4-Dimethoxy-N-(4-oxo-4H-chromen-2-yl) benzamide] | 71.9 ± 13.5% | 
296 °C | O=C(Nc1cc(=O)c2ccccc2o1)c1ccc(Cl)cc1 [6f, 4-Chloro-N-(4-oxo-4H-chromen-2-yl) benzamide] | 66.6 ± 2.1% | 
287 °C | O=C(Nc1cc(=O)c2ccccc2o1)c1ccc(N2CCOCC2)cc1 [6u, 4-Morpholino-N-(4-oxo-4H-chromen-2-yl) benzamide] | 56.8 ± 10% | 
218 °C | CSc1ccccc1C(=O)Nc1cc(=O)c2ccccc2o1 [6r, 2-(Methylthio)-N-(4-oxo-4H-chromen-2-yl) benzamide] | 60.3 ± 15.8% | 
251 °C | O=C(Nc1cc(=O)c2ccccc2o1)c1ccc(F)cc1 [6e, 4-Fluoro-N-(4-oxo-4H-chromen-2-yl) benzamide] | 65.3 ± 7.6% | 
249 °C | O=C(Nc1cc(=O)c2ccccc2o1)c1ccc(F)cc1Cl [6k, 2-Chloro-4-fluoro-N-(4-oxo-4H-chromen-2-yl) benzamide] | 63.2 ± 9.3% | 
323 °C | O=C(Nc1cc(=O)c2ccccc2o1)c1ccc([N+](=O)[O-])cc1 [6m, 4-Nitro-N-(4-oxo-4H-chromen-2-yl) benzamide] | < 10% | inactive
218 °C | O=C(Nc1cc(=O)c2ccccc2o1)c1ccccc1 [6a, N-(4-Oxo-4H-chromen-2-yl) benzamide] | 73.6 ± 6.1% | 
241 °C | O=C(Nc1cc(=O)c2ccccc2o1)C1CCCCC1 [6x, N-(4-Oxo-4H-chromen-2-yl)cyclohexanecarboxamide] | 48.7 ± 5.3% | 
224 °C | O=C(Nc1cc(=O)c2ccccc2o1)c1ccc(F)c(Cl)c1 [6l, 3-Chloro-4-fluoro-N-(4-oxo-4H-chromen-2-yl) benzamide] | 67.2 ± 5.2% | 
198 °C | COc1cc(OC)cc(C(=O)Nc2cc(=O)c3ccccc3o2)c1 [6t, 3,5-Dimethoxy-N-(4-oxo-4H-chromen-2-yl) benzamide] | 43.8 ± 2.4% | 
